From the NIST ThermoML archive (doi:10.1016/j.jct.2016.02.014)
± gives the expanded uncertainty stated by the source.

Columns and labels:
[1] = xn = mol fraction of the nth substance listed; details: 100 kPa, Liquid, x1 = 1; for viscosity: Capillary tube (Ostwald / Ubbelohde) method; for mass density: Vibrating tube method
[2] = 101.33 kPa, Liquid; for viscosity: Capillary tube (Ostwald / Ubbelohde) method; for mass density: Vibrating tube method

CCCCn1cc[n+](C)c1.N#CN=C=[N-] [1-butyl-3-methylimidazolium dicyanamide] + O=C1CCCO1
[1]
Details | mass density [kg/m3] | viscosity [mPa·s]
273.15 K | 1075.2 ± 8.6 | 95.68 ± 2.4
283.15 K | 1068.94 ± 8.6 | 55.27 ± 1.2
293.15 K | 1062.52 ± 8.5 | 35.04 ± 0.8
298.15 K | 1059.33 ± 8.5 | 28.5 ± 0.65
303.15 K | 1056.15 ± 8.5 | 23.52 ± 0.53
313.15 K | 1049.85 ± 8.4 | 16.95 ± 0.39
323.15 K | 1043.61 ± 8.4 | 12.65 ± 0.29

CCCCn1cc[n+](C)c1.N#CN=C=[N-] [1-butyl-3-methylimidazolium dicyanamide]
[2]
Details | mass density [kg/m3] | viscosity [mPa·s]
273.15 K | 1075.2 ± 8.6 | 95.68 ± 2.4
278.15 K | 1072.13 ± 8.6 | 71.85 ± 1.7
283.15 K | 1068.94 ± 8.6 | 55.27 ± 1.2
288.15 K | 1065.72 ± 8.6 | 43.57 ± 0.99
293.15 K | 1062.52 ± 8.5 | 35.04 ± 0.8
298.15 K | 1059.33 ± 8.5 | 28.5 ± 0.65
303.15 K | 1056.15 ± 8.5 | 23.52 ± 0.53
308.15 K | 1052.99 ± 8.5 | 19.87 ± 0.45
313.15 K | 1049.85 ± 8.4 | 16.95 ± 0.39
318.15 K | 1046.72 ± 8.4 | 14.61 ± 0.33
323.15 K | 1043.61 ± 8.4 | 12.65 ± 0.29
328.15 K | 1040.51 ± 8.4 | –
333.15 K | 1037.43 ± 8.3 | –
